Experimental data: US11124483B2, “HER3 ligands and uses thereof” (THE REGENTS OF THE UNIVERSITY OF CALIFORNIA, priority 2015, dated 2021)

Columns and labels:
[1] = target: Src kinase (UniProt P00523); test: In vitro Src kinase assay (30-min); type: biochemical; settings: percent activity vs. DMSO control
Procedure: In vitro Kinase Assays. In vitro kinase assays with the HER2 kinase domain (SignalChem) were performed in triplicate as follows. To 9 μL of a 2.5× solution of kinase and substrate in reaction buffer was added 3 μL of a 5×DMSO or inhibitor dilution in 10% DMSO:water. The inhibitor/kinase solution was incubated at room temperature for 10 minutes. The kinase assay was initiated by the addition of 3 μL of a 5× solution of ATP, and ran for 15 minutes. The final reaction conditions were 50 mM Tris (pH7.4), 5 mM MnCl2, 0.01% Tween-20, 2 mM DTT, 100 μM E4Y substrate (SignalChem), 15 nM HER2, 2% DMSO, 50 μM ATP, and 1 μCi γ^32P-ATP. After 15 minutes, 3 μL of each reaction was pipetted onto phosphocellulose sheets (P81, Whatman) and allowed to dry. The sheets were then washed 4×5 min with a solution of 0.5% phosphoric acid, dried, and exposed to a phosphor screen overnight. Src Kinase assays were conducted as previously described^2. Phosphorimaging was conducted on a Typhoon 9500, image intensities were quantified in ImageQuant 5.2, normalized to the DMSO control and plotted in GraphPad Prism 6.

[2] = target: T1, HER3 TKD (Homo sapiens, UniProt P21860); test: HER3 TKD Thermofluor assay; type: binding; settings: 20 μM inhibitor, 2 μM kinase, vs DMSO
T1 construct: made in house
T1 sequence (P21860 709-966 limits assumed): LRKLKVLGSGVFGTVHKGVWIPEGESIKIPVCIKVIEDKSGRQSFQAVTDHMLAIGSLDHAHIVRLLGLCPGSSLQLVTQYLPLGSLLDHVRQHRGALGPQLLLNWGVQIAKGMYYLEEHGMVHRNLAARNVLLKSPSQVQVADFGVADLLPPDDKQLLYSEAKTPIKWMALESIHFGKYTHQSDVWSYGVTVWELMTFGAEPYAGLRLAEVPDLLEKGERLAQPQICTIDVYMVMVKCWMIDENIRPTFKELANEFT
Procedure: HER3 Thermofluor Assay. Wt HER3 TKD was purified according to the previously published protocol^1. Thermofluor reactions were performed in duplicate and set up as follows. 1 μL of an inhibitor or DMSO dilution in 40% DMSO:water was added to 19 μL of the HER3 kinase domain in reaction buffer. The final reaction solution contained 100 mM MOPS, 200 mM NaCl, 5% glycerol, 5 mM MgCl2, 0.1 mM DTT, 5×SYPRO Orange, 2 μM kinase, 2% DMSO and 20 μM inhibitor in the wells of a 96-well, low profile, white, PCR plate (USA scientific). The solution was pipetted up and down to mix, sealed with TempAssure clear PCR flat caps (USA Scientific), centrifuged at 500×g for 30 s, and heated in a Stratagene Mx3005P RT-PCR machine from 25° C. to 95° C. in 0.5° C. increments every 30 s after an initial incubation at 25° C. for 10 min. Fluorescence was measured at the end of each 30 s period with an excitation wavelength of 492 nm and an emission wavelength of 610 nm. To obtain the melting temperature, fluorescent signals were normalized to the maximum fluorescent signal for that well. Values after the well had reached a maximum signal were discarded and the signals were fit to the Boltzmann equation in Graphpad Prism 6. ΔTm was calculated as the difference in melting temperature between the compound-treated kinase compared to the DMSO control.

| Structure (SMILES) | IC50 [1] | binding to HER3 TKD (percent unfolded protein vs. temperature) [2] |
| --- | --- | --- |
| COc1cc2ncc(C#N)c(Nc3ccc(Oc4cccc(NC(=O)Nc5cccc(C(F)(F)F)c5)c4)cc3)c2cc1OC [50A, 1-(3-(4-((3-cyano-6,7-dimethoxyquinolin-4-yl)amino)phenoxy)phenyl)-3-(3-(trifluoromethyl)phenyl)urea] | 3.3 nM | particularly tight binding |
| COc1cc(Nc2c(C#N)cnc3cc(OCCCN4CCN(C)CC4)c(OC)cc23)c(Cl)cc1Cl [bosutinib, reference compound] | 3.3 nM |  |
